From patent US20170304288A1, “Formulations of Methionine Aminopeptidase Inhibitors for Treating Infectious Diseases” (Texas Southern University, priority 2013, published 2017)

tested on: M. tuberculosis HN 3409; format: cell-based, Mycobacterium tuberculosis; details: preliminary results, 29 days

Structure (SMILES)	Multi-Drug Resistant Tuberculosis Strain HN3409
Oc1c(Cl)cc(Cl)c2cccnc12	<1.0 µg/mL
O=C1C(Br)=C(Br)C(=O)c2ccccc21	<25.0 µg/mL
O=C1C(Cl)=C(Cl)C(=O)c2ccccc21	<10.0 µg/mL
O=C(N/N=C/c1c(O)ccc2ccccc12)c1ccncc1 [drawing 27]	>25.0 µg/mL
Oc1ccccc1/C=N/Nc1ncnc2sc3c(c12)CCCC3 [drawing 28]	>25.0 µg/mL
Cc1nc(-c2ccccn2)nc(N(C)Cc2ccccc2)c1Cl [drawing 29]	<1.0 µg/mL
Oc1c(Br)cc(Cl)c2cccnc12 [drawing 31]	<5.0 µg/mL
Oc1c(I)cc(Cl)c2cccnc12 [drawing 32]	<10.0 µg/mL
